Experimental findings from patent US20090018134A1, “Compounds - 945” (AstraZeneca AB, priority 2007, published 2009) are described below.

The target in one assay is T1, mTOR (Homo sapiens, UniProt P42345).
T1 construct: FLAG; made in house
T1 sequence (P42345 1362-2549): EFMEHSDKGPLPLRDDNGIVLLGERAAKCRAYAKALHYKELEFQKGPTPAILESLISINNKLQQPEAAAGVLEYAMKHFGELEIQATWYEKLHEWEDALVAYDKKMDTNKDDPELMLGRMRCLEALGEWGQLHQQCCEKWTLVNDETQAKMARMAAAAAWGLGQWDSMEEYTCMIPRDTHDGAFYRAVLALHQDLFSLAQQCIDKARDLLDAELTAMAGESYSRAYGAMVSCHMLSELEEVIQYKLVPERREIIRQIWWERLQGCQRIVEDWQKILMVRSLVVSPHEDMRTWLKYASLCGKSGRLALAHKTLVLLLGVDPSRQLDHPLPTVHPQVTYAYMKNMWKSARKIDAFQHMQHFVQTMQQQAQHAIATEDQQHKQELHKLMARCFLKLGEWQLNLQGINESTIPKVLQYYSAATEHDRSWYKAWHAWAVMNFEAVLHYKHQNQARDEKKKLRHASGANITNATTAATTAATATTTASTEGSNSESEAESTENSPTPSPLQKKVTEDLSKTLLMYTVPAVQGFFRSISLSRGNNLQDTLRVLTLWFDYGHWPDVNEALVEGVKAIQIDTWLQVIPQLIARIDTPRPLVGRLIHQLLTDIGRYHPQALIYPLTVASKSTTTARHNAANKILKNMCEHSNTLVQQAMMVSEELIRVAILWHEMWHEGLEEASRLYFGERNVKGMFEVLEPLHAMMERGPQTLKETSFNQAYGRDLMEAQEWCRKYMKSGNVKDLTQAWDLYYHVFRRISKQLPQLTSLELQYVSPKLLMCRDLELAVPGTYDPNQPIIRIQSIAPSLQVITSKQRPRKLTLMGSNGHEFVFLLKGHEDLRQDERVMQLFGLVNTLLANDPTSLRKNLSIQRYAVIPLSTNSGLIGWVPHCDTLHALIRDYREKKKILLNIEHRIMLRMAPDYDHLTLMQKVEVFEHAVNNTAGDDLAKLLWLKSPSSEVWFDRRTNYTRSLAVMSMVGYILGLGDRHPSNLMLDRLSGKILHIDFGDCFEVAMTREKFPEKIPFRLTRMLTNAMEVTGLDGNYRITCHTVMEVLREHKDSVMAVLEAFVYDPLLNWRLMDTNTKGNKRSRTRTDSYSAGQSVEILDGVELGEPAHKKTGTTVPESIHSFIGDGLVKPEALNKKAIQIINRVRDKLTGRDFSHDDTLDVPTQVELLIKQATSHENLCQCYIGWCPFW
Nature of the assay: In Vitro mTOR Kinase Assay (Echo), Test (a)(ii). The format is biochemical. Particulars: read-out: mTOR Kinase Assay (Echo). A digest of the protocol: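 FLAG-tagged truncated mTOR (residues 1362-2549), expressed in HEK293 and purified via the FLAG tag, phosphorylated a biotinylated peptide over 2 hours at room temperature. EDTA stopped the reaction. Phospho-T389 was detected overnight by AlphaScreen using the p70 S6K T389 antibody with Protein A/streptavidin beads; IC50 reported.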
In the case of `CNC(=O)Nc1ccc(-c2nc(N3CCOC[C@@H]3C)cc(C3(S(=O)(=O)c4ccc(F)cc4)CC3)n2)cc1` [Example 8, 1-[4-[4-[1-(4-Fluorophenyl)sulfonylcyclopropyl]-6-[(3S)-3-methylmorpholin-4-yl]pyrimidin-2-yl]phenyl]-3-methyl-urea], the IC50 was found to be 0.576 nM. Still for that read-out and setting: the value for `C[C@H]1COCCN1c1cc(C2(S(=O)(=O)C3CC3)CC2)nc(-c2ccc(NC(=O)NCCN3CCCC3)cc2)n1` [Example 3p, 1-[4-[4-(1-cyclopropylsulfonylcyclopropyl)-6-[(3S)-3-methylmorpholin-4-yl]pyrimidin-2-yl]phenyl]-3-(2-pyrrolidin-1-ylethyl)urea] was 193 nM; that for `CNC(=O)Nc1ccc(-c2nc(N3CCOC[C@@H]3C)cc(C3(S(=O)(=O)C4CCCC4)CC3)n2)cc1` [Example 9i] was 2.4 nM.

As to `C[C@H]1COCCN1c1cc(C2(S(=O)(=O)C3CC3)CC2)nc(-c2ccc(NC(=O)NCC(C)(C)O)cc2)n1` [Example 3r, 1-[4-[4-(1-cyclopropylsulfonylcyclopropyl)-6-[(3S)-3-methylmorpholin-4-yl]pyrimidin-2-yl]phenyl]-3-(2-hydroxy-2-methylpropyl)urea], the IC50 is 48.8 nM. On the same count and under the same terms, next, `C[C@H]1COCCN1c1cc(C2(S(C)(=O)=O)CC2)nc(-c2ccc(NC(=O)NCCN(C)C)cc2)n1` [Example 2e, 3-(2-dimethylaminoethyl)-1-[4-[4-[(3S)-3-methylmorpholin-4-yl]-6-(1-methylsulfonylcyclopropyl)pyrimidin-2-yl]phenyl]urea]: 279 nM; `CCCNC(=O)Nc1ccc(-c2nc(N3CCOC[C@@H]3C)cc(C3(S(=O)(=O)c4ccc(F)cc4)CC3)n2)cc1` [Example 8h, 3-[4-[4-[1-(4-fluorophenyl)sulfonylcyclopropyl]-6-[(3S)-3-methylmorpholin-4-yl]pyrimidin-2-yl]phenyl]-1-propyl-urea]: 1.76 nM. As for `C[C@H]1COCCN1c1cc(C2(S(C)(=O)=O)CCCC2)nc(-c2ccc(NC(=O)NC(C)(C)CO)cc2)n1` [Example 4f, 3-(1-hydroxy-2-methyl-propan-2-yl)-1-[4-[4-[(3S)-3-methylmorpholin-4-yl]-6-(1-methylsulfonylcyclopentyl)pyrimidin-2-yl]phenyl]urea], the IC50 was found to be 10 nM.

Staying with this assay, now noted: table of enzyme assay Test (a)(ii); read-out: Test (a)(ii) IC50.
As for `CNC(=O)Nc1ncc(-c2nc(N3CCOC[C@@H]3C)cc(C3(S(=O)(=O)c4ccc(F)cc4)CC3)n2)cn1` [Example 14f, 1-[5-[4-[1-(4-fluorophenyl)sulfonylcyclopro-pyl]-6-[(3S)-3-methylmorpholin-4-yl]pyrimidin-2-yl]pyrimidin-2-yl]-3-methylurea], the IC50 turned out to be 189 nM. Still for that read-out and setting: the value for `CNC(=O)Nc1ccc(-c2nc(N3CCOC[C@@H]3C)cc(C3(S(=O)(=O)CCC(C)(C)O)CC3)n2)cc1` [Example 79a, 1-[4-[4-[1-(3-hydroxy-3-methylbutyl)sulfonylcyclopropyl]-6-[(3S)-3-methylmorpholin-4-yl]pyrimidin-2-yl]phenyl]-3-methylurea] was 22.2 nM; that for `C[C@H]1COC[C@H](C)N1c1cc(C2(S(=O)(=O)c3ccccc3)CC2)nc(-c2ccc(NC(=O)NCCO)cc2)n1` [Example 93b, 1-[4-[4-[1-(benzenesulfonyl)cyclopropyl]-6-[(3S,5S)-3,5-dimethylmorpholin-4-yl]pyrimidin-2-yl]phenyl]-3-(2-hydroxyethyl)urea] was 2.3 nM; that for `CCNC(=S)Nc1ccc(-c2nc(N3CCOC[C@@H]3C)cc(C3(S(=O)(=O)c4ccccc4)CC3)n2)cc1` [Example 37z, 3-[4-[4-[1-(benzenesulfonyl)cyclopropyl]-6-[(3S)-3-methylmorpholin-4-yl]pyrimidin-2-yl]phenyl]-1-ethylthiourea] was 4.81 nM. On to `C[C@H]1COCCN1c1cc(C2(S(=O)(=O)C3CC3)CCOCC2)nc(-c2ccc(NC(=O)NCCN(C)C)cc2)n1` [Example 23g, 1-[4-[4-(4-cyclopropylsulfonyloxan-4-yl)-6-[(3S)-3-methylmorpholin-4-yl]pyrimidin-2-yl]phenyl]-3-(2-dimethylaminoethyl)urea], for which the IC50 was found to be 1210 nM.

On to `CNC(=O)Nc1ccc(-c2nc(N3CCOC[C@@H]3C)cc(C3(S(=O)(=O)c4ccc(F)cc4)CC3)n2)cc1` [Example 8, 1-[4-[4-[1-(4-Fluorophenyl)sulfonylcyclopropyl]-6-[(3S)-3-methylmorpholin-4-yl]pyrimidin-2-yl]phenyl]-3-methyl-urea], for which the IC50 turned out to be 0.959 nM. For `C[C@H]1COCCN1c1cc(C2(S(=O)(=O)c3ccccc3)CCOCC2)nc(-c2ccc(NC(=O)NC3CC3)cc2)n1` [Example 36da, 1-[4-[4-[4-(benzenesulfonyl)oxan-4-yl]-6-[(3S)-3-methylmorpholin-4-yl]pyrimidin-2-yl]phenyl]-3-cyclopropylurea], the IC50 amounted to 33.1 nM. Regarding `CNC(=O)Nc1ccc(-c2nc(N3CCOC[C@@H]3C)cc(C3(S(=O)(=O)c4c(C)noc4C)CC3)n2)cc1` [Example 59], the IC50 was determined as 8.82 nM. Take `C[C@H]1COCCN1c1cc(C2(S(=O)(=O)c3ccccn3)CCC2)nc(-c2ccc(NC(=O)NCCC#N)cc2)n1` [Example 36ai, 3-(2-cyanoethyl)-1-[4-[4-[(3S)-3-methylmorpholin-4-yl]-6-(1-pyridin-2-ylsulfonylcyclobutyl)pyrimidin-2-yl)phenyl]urea]: the IC50 turned out to be 5.61 nM.

On to `Cc1csc(S(=O)(=O)C2(c3cc(N4CCOCC4)nc(-c4ccc(NC(=O)NCCO)cc4)n3)CC2)n1` [Example 42a, 3-(2-hydroxyethyl)-1-[4-[4-[1-[(4-methyl-1,3-thiazol-2-yl)sulfonyl]cyclopropyl]-6-morpholin-4-ylpyrimidin-2-yl]phenyl]urea], for which the IC50 was 2.61 nM. Take `C[C@H]1COCCN1c1cc(C2(S(=O)(=O)CCCO)CCOCC2)nc(-c2ccc(NC(=O)NC3CCC3)cc2)n1` [Example 36cd, 3-cyclobutyl-1-[4-[4-[4-(3-hydroxypropylsulfonyl)oxan-4-yl]-6-[(3S)-3-methylmorpholin-4-yl]pyrimidin-2-yl]phenyl]urea]: the IC50 came to 147 nM. `N#CCCNC(=O)Nc1ccc(-c2nc(N3CCOCC3)cc(C3(S(=O)(=O)c4ccccc4)CC3)n2)cc1` [Example 36dh, 1-[4-[4-[1-(benzenesulfonyl)cyclopropyl]-6-morpholin-4-ylpyrimidin-2-yl]phenyl]-3-(2-cyanoethyl)urea]: the IC50 worked out at 3.4 nM. Same read-out and setting: next, `C[C@H]1COCCN1c1cc(C2(S(=O)(=O)c3ccc(F)cc3)CC2)nc(-c2ccc(NC(=O)NCCO)nc2)n1` [Example 14l, 1-[5-[4-[1-(4-fluorophenyl)sulfonylcyclopro-pyl]-6-[(3S)-3-methylmorpholin-4-yl]pyrimidin-2-yl]pyridin-2-yl]-3-(2-hydroxyethyl)urea]: 13.7 nM; `Cc1cc(NC(=O)Nc2ccc(-c3nc(N4CCOC[C@@H]4C)cc(C4(S(=O)(=O)c5ccccc5)CC4)n3)cc2)no1` [Example 36dw, 3-[4-[4-[1-(benzenesulfonyl)cyclopropyl]-6-[(3S)-3-methylmorpholin-4-yl]pyrimidin-2-yl]phenyl]-1-(5-methyl-1,2-oxazol-3-yl)urea]: 6.24 nM.

For `O=C(Nc1ccc(-c2nc(N3CCOCC3)cc(C3(S(=O)(=O)c4ccccc4)CC3)n2)cc1)NC1CC1` [Example 36dc, 1-[4-[4-[1-(benzenesulfonyl)cyclopropyl]-6-morpholin-4-ylpyrimidin-2-yl]phenyl]-3-cyclopropylurea], the IC50 turned out to be 9.89 nM.

With `C[C@H]1COC[C@H](C)N1c1cc(C2(S(=O)(=O)C3CC3)CC2)nc(-c2ccc(NC(=O)Nc3cnn(C)c3)cc2)n1` [Example 92b, 1-[4-[4-(1-cyclopropylsulfonylcyclopropyl)-6-[(3S,5S)-3,5-dimethylmorpholin-4-yl]pyrimidin-2-yl]phenyl]-3-(1-methylpyrazol-4-yl)urea], the IC50 amounted to 7.46 nM. On to `CCNC(=O)Nc1ccc(-c2nc(N3CCOC[C@@H]3C)cc(C3(S(=O)(=O)C4CCCCC4)CC3)n2)cc1` [Example 26b, 3-[4-[4-(1-cyclohexylsulfonylcyclopropyl)-6-[(3S)-3-methylmorpholin-4-yl]pyrimidin-2-yl]phenyl]-1-ethylurea], for which the IC50 was 3.9 nM. Still for that read-out and setting: the value for `C[C@H]1COCCN1c1cc(C2(S(C)(=O)=O)CC2)nc(-c2ccc(NC(=O)NC3CC3)c(F)c2)n1` [Example 52, 3-cyclopropyl-1-[2-fluoro-4-[4-[(3S)-3-methylmorpholin-4-yl]-6-(1-methylsulfonylcyclopropyl)pyrimidin-2-yl]phenyl]urea] was 18.4 nM. For `C[C@H]1COCCN1c1cc(C2(S(=O)(=O)C(C)(C)C)CC2)nc(-c2ccc(NC(=O)NC(C)(C)CO)cc2)n1` [Example 18k, 1-[4-[4-(1-tert-butylsulfonylcyclopropyl)-6-[(3S)-3-methylmorpholin-4-yl]pyrimidin-2-yl]phenyl]-3-(1-hydroxy-2-methylpropan-2-yl)urea], the IC50 turned out to be 11.3 nM. Same read-out and setting: the value for `C[C@H]1COCCN1c1cc(C2(S(=O)(=O)CCCO)CCOCC2)nc(-c2ccc(NC(=O)NCCO)cc2)n1` [Example 36cg, 3-(2-hydroxyethyl)-1-[4-[4-[4-(3-hydroxypropylsulfonyl)oxan-4-yl]-6-[(3S)-3-methylmorpholin-4-yl]pyrimidin-2-yl]phenyl]urea] was 136 nM. `C[C@H]1COCCN1c1cc(C2(S(=O)(=O)c3ccc(F)cc3)CC2)nc(-c2ccc(NC(=O)NCCN(C)C)nc2)n1` [Example 14k, 3-(2-dimethylaminoethyl)-1-[5-[4-[1-(4-fluorophenyl)sulfonylcyclopro-pyl]-6-[(3S)-3-methylmorpholin-4-yl]pyrimidin-2-yl]pyridin-2-yl]urea]: the IC50 was determined as 275 nM. As for `C[C@H]1COCCN1c1cc(C2(S(=O)(=O)c3ccc(F)cc3)CCC2)nc(-c2ccc(NC(=O)NCCO)cc2)n1` [Example 65b, 1-[4-[4-[1-(4-fluorophenyl)sulfonylcyclobutyl]-6-[(3S)-3-methylmorpholin-4-yl]pyrimidin-2-yl]phenyl]-3-(2-hydroxyethyl)urea], the IC50 came out at 3.42 nM.

On to `CC[C@H]1COCCN1c1cc(C2(S(=O)(=O)c3ccccc3)CC2)nc(-c2ccc(NC(=O)NCC3(O)CC3)cc2)n1` [Example 74i, 1-[4-[4-[1-(benzenesulfonyl)cyclopropyl]-6-[(3S)-3-ethylmorpholin-4-yl]pyrimidin-2-yl]phenyl]-3-[(1-hydroxycyclopropyl)methyl]urea], for which the IC50 was 9.25 nM.
